Data reported in patent publication US20180057505A1, “BICYCLIC HETEROARYL COMPOUNDS USEFUL AS INHIBITORS OF THE PAR-2 SIGNALING PATHWAY” (VERTEX PHARMACEUTICALS INCORPORATED, priority 2015, published 2018).

Assays:
Format in all cases: cell-based
[1] = target: T1, PAR2 (HT-29 cells) (Homo sapiens, UniProt P55085); experiment: Ca FLIPR TETRA assay, ANTAGONIST mode, activator 8 μM SLIGKV; details: HT-29 cells; activator 8 μM SLIGKV; Method A: maximal concentration of antagonist 0.1, 1 or 2 μM
T1 construct: host or cells: HT-29
T1 sequence (P55085 26-397): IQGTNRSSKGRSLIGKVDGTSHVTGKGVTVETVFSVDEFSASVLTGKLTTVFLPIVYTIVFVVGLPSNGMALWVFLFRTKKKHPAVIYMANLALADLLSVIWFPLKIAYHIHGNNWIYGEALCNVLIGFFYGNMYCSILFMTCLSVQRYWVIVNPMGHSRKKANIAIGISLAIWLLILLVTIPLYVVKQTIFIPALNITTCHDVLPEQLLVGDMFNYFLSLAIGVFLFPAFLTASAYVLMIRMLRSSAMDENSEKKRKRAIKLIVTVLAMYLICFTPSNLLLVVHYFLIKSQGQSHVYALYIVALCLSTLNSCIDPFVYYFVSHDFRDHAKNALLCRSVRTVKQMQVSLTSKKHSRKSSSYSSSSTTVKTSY
Method in brief: (§1)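 HT-29 cells plated overnight at 37 °C in 1% FBS/McCoy's, loaded with calcium 5 dye (45 min 37 °C, 15 min r.t.), then preincubated with compounds 30 min at r.t. before a fixed activator challenge. Intracellular Ca2+ read by FLIPR Tetra; a first read checks compound-alone activation.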

[2] = target: T1, PAR2 (HT-29 cells); experiment: Ca FLIPR TETRA assay, ANTAGONIST mode, activator 3.1 U/mL trypsin; details: HT-29 cells; activator 3.1 U/mL trypsin; Method A: maximal concentration of antagonist 0.1, 1 or 2 μM
Method in brief: as §1

[3] = tested on: Thrombin-stimulated Ca2+ response in HT-29 cells; experiment: Ca FLIPR TETRA assay, ANTAGONIST mode, activator 1 U/mL Thrombin; details: HT-29 cells, activator 1 U/mL Thrombin
Method in brief: as §1

[4] = tested on: UTP-stimulated Ca2+ response in HT-29 cells; experiment: Ca FLIPR TETRA assay, ANTAGONIST mode, activator 0.6 μM UTP; details: HT-29 cells, activator 0.6 μM UTP
Method in brief: as §1

IC50 [1]	IC50 [2]	IC50 ([3]; Homo sapiens)	IC50 ([4]; Homo sapiens)	IC50 [3]	IC50 [4]	SMILES
0.056 µM	0.0405 µM	> 2 µM	> 2 µM	–	–	Cc1ccc(N2CCN(C(=O)c3cc4nc(-c5ccc(Cl)cc5)cc(C(C)(C)C)c4o3)C(C)(C)C2)nc1 [Example I-395]
0.0003 µM	0.0003 µM	1.01 µM	1.06 µM	–	–	CC(C)(C)c1cc(-c2ccc(Cl)c(F)c2)nc2cc(C(=O)N3CCN(c4ncc(C(=O)O)cc4F)CC3(C)C)oc12 [Example I-396]
0.0006 µM	0.0006 µM	–	–	> 1.01 µM	0.76 µM	Cc1ccc(C(=O)O)nc1C1CCN(C(=O)c2cc3nc(-c4ccc(Cl)cc4)cc(C(C)(C)C)c3o2)C(C)(C)C1 (stereo not shown) [Example I-397]
0.0004 µM	0.0005 µM	> 1.01 µM	1.01 µM	–	–	Cc1cc(N2CCN(C(=O)c3cc4nc(C5CCC(C)(C)CC5)cc(C(C)(C)C)c4o3)C(C)(C)C2)ncc1C(=O)O [Example I-398]
0.0004 µM	0.0006 µM	> 1.01 µM	0.86 µM	–	–	Cc1cc(N2CCN(C(=O)c3cc4nc(-c5ccc(Cl)cc5)cc(C(C)(C)C)c4o3)C(C)(C)C2)ncc1C(=O)O [Example I-399]
0.0003 µM	0.0004 µM	1.01 µM	0.81 µM	–	–	Cc1cc(N2CCN(C(=O)c3cc4nc(-c5ccc(Cl)c(F)c5)cc(C(C)(C)C)c4o3)C(C)(C)C2)ncc1C(=O)O [Example I-400]
0.0003 µM	0.0005 µM	0.96 µM	0.71 µM	–	–	Cc1cc(C(=O)O)nc(N2CCN(C(=O)c3cc4nc(-c5ccc(Cl)cc5)cc(C(C)(C)C)c4o3)C(C)(C)C2)n1 [Example I-401]
0.021 µM	0.015 µM	> 2 µM	> 2 µM	–	–	CC(C)(C)c1cc(-c2ccc(Cl)cc2)nc2cc(C(=O)N3CCN(c4cnccn4)CC3(C)C)oc12 [Example I-402]
0.023 µM	0.024 µM	> 2 µM	> 2 µM	–	–	Cc1ccnc(N2CCN(C(=O)c3cc4nc(-c5ccc(Cl)cc5)cc(C(C)(C)C)c4o3)C(C)(C)C2)n1 [Example I-403]
0.025 µM	0.016 µM	> 2 µM	> 2 µM	–	–	CC(C)(C)c1cc(-c2ccc(Cl)cc2)nc2cc(C(=O)N3CCN(c4ncccn4)CC3(C)C)oc12 [Example I-404]
0.0018 µM	0.0017 µM	0.75 µM	0.58 µM	–	–	CC(C)(C)c1cc(-c2ccc(Cl)c(F)c2)nc2cc(C(=O)N3CCN(c4ccc(C(=O)O)cn4)C(=O)C3(C)C)oc12 [Example I-405]
0.01 µM	0.0088 µM	> 2 µM	> 2 µM	–	–	CC(C)(C)c1cc(-c2ccc(Cl)c(F)c2)nc2cc(C(=O)N3CCN(c4ccn[nH]4)C(=O)C3(C)C)oc12 [Example I-406]
0.017 µM	0.017 µM	> 2 µM	> 2 µM	–	–	CC(C)(C)c1cc(-c2ccc(Cl)cc2)nc2cc(C(=O)N3CCN(c4ccn[nH]4)C(=O)C3(C)C)oc12 [Example I-407]
0.0007 µM	0.001 µM	0.86 µM	0.51 µM	–	–	Cc1cc(C(=O)O)nc(N2CCN(C(=O)c3cc4nc(C5CCC(C)(C)CC5)cc(C(C)(C)C)c4o3)C(C)(C)C2)n1 [Example I-408]
0.0003 µM	0.0005 µM	–	–	> 1.01 µM	0.56 µM	Cc1cc(C(=O)O)nc(N2CCN(C(=O)c3cc4nc(-c5ccc(Cl)c(F)c5)cc(C(C)(C)C)c4o3)C(C)(C)C2=O)n1 [Example I-409]
0.0006 µM	0.0009 µM	–	–	> 1.01 µM	> 1.01 µM	Cc1nc(N2CCN(C(=O)c3cc4nc(-c5ccc(Cl)cc5)cc(C(C)(C)C)c4o3)C(C)(C)C2)ncc1C(=O)O [Example I-410]
0.0002 µM	0.0003 µM	> 2 µM	> 2 µM	–	–	Cc1nc(N2CCN(C(=O)c3cc4nc(-c5ccc(Cl)c(F)c5)cc(C(C)(C)C)c4o3)C(C)(C)C2)ccc1C(=O)O [Example I-411]
0.0131 µM	0.015 µM	> 2 µM	> 2 µM	–	–	CC(C)(C)c1cc(-c2ccc(Cl)c(F)c2)nc2cc(C(=O)N3CCN(c4ccncn4)CC3(C)C)oc12 [Example I-412]
0.0006 µM	0.0008 µM	0.81 µM	0.81 µM	–	–	CC1(C)CCC(c2cc(C(C)(C)C)c3oc(C(=O)N4CCN(c5ccc(C(=O)O)cn5)CC4(C)C)cc3n2)CC1 [Example I-413]

IC50 [1]	IC50 [2]	IC50 ([3]; Homo sapiens)	IC50 ([4]; Homo sapiens)	IC50 [3]	IC50 [4]	SMILES
0.0085 µM	0.016 µM	> 2 µM	> 2 µM	–	–	CC1(C)CCC(c2cc(C(C)(C)C)c3oc(C(=O)N4CCN(c5ccnc(C(=O)O)n5)CC4(C)C)cc3n2)CC1 [Example I-414]
0.019 µM	0.019 µM	> 2 µM	> 2 µM	–	–	CC(C)(C)c1cc(-c2ccc(Cl)cc2)nc2cc(C(=O)N3CCN(c4ccnc(C(=O)O)n4)CC3(C)C)oc12 [Example I-415]
0.0004 µM	0.0007 µM	> 1.63 µM	> 1.63 µM	–	–	CC1(C)CCC(c2cc(C(C)(C)C)c3oc(C(=O)N4CCN(C(=O)CC(C)(C)C(=O)O)CC4(C)C)cc3n2)CC1 [Example I-416]
0.0002 µM	0.0004 µM	> 1.63 µM	> 1.63 µM	–	–	CC(C)(CC(=O)N1CCN(C(=O)c2cc3nc(-c4ccc(Cl)c(F)c4)cc(C(C)(C)C)c3o2)C(C)(C)C1)C(=O)O [Example I-417]
0.0021 µM	0.0056 µM	> 1.25 µM	> 1.25 µM	–	–	CC1(C)CCC(c2cc(C(C)(C)C)c3oc(C(=O)N4CCN(C(=O)CCC(=O)O)CC4(C)C)cc3n2)CC1 [Example I-418]
0.0011 µM	0.003 µM	> 1.25 µM	> 1.25 µM	–	–	CC(C)(C)c1cc(-c2ccc(Cl)c(F)c2)nc2cc(C(=O)N3CCN(C(=O)CCC(=O)O)CC3(C)C)oc12 [Example I-419]
0.0046 µM	0.0098 µM	> 1.25 µM	> 1.25 µM	–	–	CC(C)(C)c1cc(-c2ccc(Cl)cc2)nc2cc(C(=O)N3CCN(C(=O)CCC(=O)O)CC3(C)C)oc12 [Example I-420]
0.0015 µM	0.0034 µM	–	–	0.6 µM	0.75 µM	CC(C)(C)c1cc(-c2ccc(F)cc2)nc2cc(C(=O)N3CCN(c4cnc(C(=O)O)cn4)CC3(C)C)oc12 [Example I-421]
0.0002 µM	0.0003 µM	–	–	2 µM	1.5 µM	CC(C)(C)c1cc(-c2ccc(Cl)c(F)c2)nc2cc(C(=O)N3CCC(C(=O)[C@H]4CC[C@@](C)(C(=O)O)CC4)CC3(C)C)oc12 (stereo partly shown) [Example I-422]
0.0004 µM	0.0007 µM	> 2 µM	> 2 µM	–	–	CC(C)(C)c1cc(-c2ccc(Cl)cc2)nc2cc(C(=O)N3CCN(C(=O)[C@H]4CC[C@@](C)(C(=O)O)CC4)CC3(C)C)oc12 [Example I-423]
0.0001 µM	0.0003 µM	–	–	1.8 µM	1.2 µM	CC(C)(C)c1cc(-c2ccc(Cl)c(F)c2)nc2cc(C(=O)N3CCC(c4nc(C(=O)O)cs4)CC3(C)C)oc12 (stereo not shown) [Example I-424]
0.0003 µM	0.0004 µM	–	–	> 2 µM	> 2 µM	Cc1oc(C2CCN(C(=O)c3cc4nc(C5CCC(C)(C)CC5)cc(C(C)(C)C)c4o3)C(C)(C)C2)nc1C(=O)O (stereo not shown) [Example I-425]
0.0001 µM	0.0001 µM	–	–	1.8 µM	1.3 µM	CC(C)(C)c1cc(-c2ccc(Cl)cc2)nc2cc(C(=O)N3CCC(c4nc(C(=O)O)cs4)CC3(C)C)oc12 (stereo not shown) [Example I-426]
0.0005 µM	0.0008 µM	–	–	0.42 µM	0.52 µM	CC1(C)CCC(c2cc(C(C)(C)C)c3oc(C(=O)N4CCC(c5ncc(C(=O)O)cn5)CC4(C)C)cc3n2)CC1 (stereo not shown) [Example I-427]
0.0006 µM	0.0007 µM	–	–	1.6 µM	1.7 µM	CC(C)(C)c1cc(-c2ccc(Cl)c(F)c2)nc2cc(C(=O)N3CCC(c4ncc(C(=O)O)cn4)CC3(C)C)oc12 (stereo not shown) [Example I-428]
0.0004 µM	0.0005 µM	–	–	0.4 µM	0.44 µM	CC(C)(C)c1cc(-c2ccc(Cl)cc2)nc2cc(C(=O)N3CCC(c4ncc(C(=O)O)cn4)CC3(C)C)oc12 (stereo not shown) [Example I-429]
0.0006 µM	0.0009 µM	–	–	> 2 µM	> 2 µM	Cc1oc(C2CCN(C(=O)c3cc4nc(-c5ccc(Cl)c(F)c5)cc(C(C)(C)C)c4o3)C(C)(C)C2)nc1C(=O)O (stereo not shown) [Example I-430]
0.0007 µM	0.0009 µM	–	–	> 2 µM	> 2 µM	Cc1oc(C2CCN(C(=O)c3cc4nc(-c5ccc(Cl)cc5)cc(C(C)(C)C)c4o3)C(C)(C)C2)nc1C(=O)O (stereo not shown) [Example I-431]
